Source: patent US20220009920A1 (GB005, Inc., priority 2020, published 2022)

Key:
Test in all cases: Large panel kinase profiling
Type in all cases: biochemical
Conditions in all cases: 1 μM test article, 1 mM ATP
ABL1 = ABL1 (Homo sapiens, UniProt P00519)
Outline: (§1)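 Single-point profiling at 1 μM test article used 1 mM ATP. Phosphorylation was tracked by sensor fluorescence increase over time at 30° C., with readings each minute at excitation 360 nm and emission 485 nm.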

CLK2 = target: T1, CLK2 (Homo sapiens, UniProt P49760)
T1 construct: AssayQuant Technologies, Inc. (service laboratory)
T1 sequence (P49760 whole entry, species assumed): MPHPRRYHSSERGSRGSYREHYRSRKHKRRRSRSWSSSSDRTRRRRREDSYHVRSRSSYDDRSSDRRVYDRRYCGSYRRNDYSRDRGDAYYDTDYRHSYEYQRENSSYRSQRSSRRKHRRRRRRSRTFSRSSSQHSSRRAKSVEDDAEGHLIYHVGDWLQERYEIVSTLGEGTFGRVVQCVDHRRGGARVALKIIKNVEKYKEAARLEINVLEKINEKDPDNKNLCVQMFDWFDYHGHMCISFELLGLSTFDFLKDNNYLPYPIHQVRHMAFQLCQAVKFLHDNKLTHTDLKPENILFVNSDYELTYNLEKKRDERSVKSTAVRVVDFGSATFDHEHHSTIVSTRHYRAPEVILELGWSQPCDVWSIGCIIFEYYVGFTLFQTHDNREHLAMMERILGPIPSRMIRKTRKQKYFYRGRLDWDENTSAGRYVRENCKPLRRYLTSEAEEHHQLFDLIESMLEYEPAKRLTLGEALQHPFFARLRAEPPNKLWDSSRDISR
Outline: as §1

MAP3K7 = target: T2, MAP3K7 (Homo sapiens, UniProt O43318)
T2 construct: AssayQuant Technologies, Inc. (service provider)
T2 sequence (O43318 1-303 limits assumed): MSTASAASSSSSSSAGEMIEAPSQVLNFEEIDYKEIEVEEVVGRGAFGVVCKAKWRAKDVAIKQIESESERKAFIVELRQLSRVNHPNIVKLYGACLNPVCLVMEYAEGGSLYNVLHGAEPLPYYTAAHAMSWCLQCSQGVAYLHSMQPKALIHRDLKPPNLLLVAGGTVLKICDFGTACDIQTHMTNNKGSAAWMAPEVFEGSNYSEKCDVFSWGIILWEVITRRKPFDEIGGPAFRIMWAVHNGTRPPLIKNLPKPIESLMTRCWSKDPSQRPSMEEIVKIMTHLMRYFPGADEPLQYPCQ
Outline: as §1

MET = target: T3, MET (Homo sapiens, UniProt P08581)
T3 construct: AssayQuant Technologies, Inc. (assay service)
T3 sequence (P08581 25-1390): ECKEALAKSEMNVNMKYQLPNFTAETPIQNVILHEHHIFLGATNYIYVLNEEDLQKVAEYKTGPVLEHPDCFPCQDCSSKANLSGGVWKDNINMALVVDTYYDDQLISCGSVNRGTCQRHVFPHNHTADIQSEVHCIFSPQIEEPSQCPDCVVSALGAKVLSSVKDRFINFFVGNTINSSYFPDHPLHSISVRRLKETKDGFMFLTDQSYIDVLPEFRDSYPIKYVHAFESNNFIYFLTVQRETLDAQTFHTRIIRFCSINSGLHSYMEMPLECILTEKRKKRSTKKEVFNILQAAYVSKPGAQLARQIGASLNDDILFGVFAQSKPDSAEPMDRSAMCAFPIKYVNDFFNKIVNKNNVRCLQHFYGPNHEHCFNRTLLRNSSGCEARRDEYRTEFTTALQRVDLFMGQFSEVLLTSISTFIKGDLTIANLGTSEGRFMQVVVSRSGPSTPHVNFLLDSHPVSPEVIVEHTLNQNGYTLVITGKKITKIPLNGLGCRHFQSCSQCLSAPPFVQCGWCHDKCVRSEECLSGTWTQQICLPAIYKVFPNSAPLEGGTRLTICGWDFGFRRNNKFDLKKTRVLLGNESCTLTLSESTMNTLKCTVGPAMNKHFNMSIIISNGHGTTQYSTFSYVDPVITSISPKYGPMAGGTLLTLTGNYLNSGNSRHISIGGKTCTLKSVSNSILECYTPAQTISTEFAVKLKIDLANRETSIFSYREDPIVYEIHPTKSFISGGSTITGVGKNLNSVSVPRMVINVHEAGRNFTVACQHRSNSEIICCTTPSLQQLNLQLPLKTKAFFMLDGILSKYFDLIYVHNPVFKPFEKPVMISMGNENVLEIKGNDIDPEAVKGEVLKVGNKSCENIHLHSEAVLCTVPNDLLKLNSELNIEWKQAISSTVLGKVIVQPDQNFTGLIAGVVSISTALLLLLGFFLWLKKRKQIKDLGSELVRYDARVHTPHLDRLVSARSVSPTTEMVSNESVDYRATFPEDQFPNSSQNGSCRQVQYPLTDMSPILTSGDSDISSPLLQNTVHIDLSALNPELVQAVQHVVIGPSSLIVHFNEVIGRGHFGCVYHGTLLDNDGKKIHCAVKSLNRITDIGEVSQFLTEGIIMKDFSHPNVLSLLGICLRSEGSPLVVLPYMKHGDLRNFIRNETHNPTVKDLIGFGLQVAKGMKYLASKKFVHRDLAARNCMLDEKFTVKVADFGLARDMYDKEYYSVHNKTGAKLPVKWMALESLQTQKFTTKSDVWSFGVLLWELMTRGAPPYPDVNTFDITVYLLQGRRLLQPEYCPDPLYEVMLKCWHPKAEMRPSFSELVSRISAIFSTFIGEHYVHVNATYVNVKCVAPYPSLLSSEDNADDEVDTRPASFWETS
Outline: as §1

PHKG2 = target: T4, PHKG2 (Homo sapiens, UniProt P15735)
T4 sequence (P15735 1-406): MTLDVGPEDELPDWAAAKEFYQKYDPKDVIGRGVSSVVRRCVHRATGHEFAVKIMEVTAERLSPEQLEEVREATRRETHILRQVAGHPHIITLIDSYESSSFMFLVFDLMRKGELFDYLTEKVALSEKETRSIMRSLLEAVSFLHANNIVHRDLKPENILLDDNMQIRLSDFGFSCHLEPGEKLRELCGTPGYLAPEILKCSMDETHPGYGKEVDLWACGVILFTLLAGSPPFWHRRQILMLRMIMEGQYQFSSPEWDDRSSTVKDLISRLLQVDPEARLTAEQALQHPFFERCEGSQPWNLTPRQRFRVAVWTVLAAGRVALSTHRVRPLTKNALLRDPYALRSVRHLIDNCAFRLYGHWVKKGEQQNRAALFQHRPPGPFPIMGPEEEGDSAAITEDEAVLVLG
Outline: as §1

STK4/MST1 = target: T5, STK4/MST1 (Homo sapiens, UniProt Q13043)
T5 construct: AssayQuant Technologies, Inc. (contract assay)
T5 sequence (Q13043 1-487): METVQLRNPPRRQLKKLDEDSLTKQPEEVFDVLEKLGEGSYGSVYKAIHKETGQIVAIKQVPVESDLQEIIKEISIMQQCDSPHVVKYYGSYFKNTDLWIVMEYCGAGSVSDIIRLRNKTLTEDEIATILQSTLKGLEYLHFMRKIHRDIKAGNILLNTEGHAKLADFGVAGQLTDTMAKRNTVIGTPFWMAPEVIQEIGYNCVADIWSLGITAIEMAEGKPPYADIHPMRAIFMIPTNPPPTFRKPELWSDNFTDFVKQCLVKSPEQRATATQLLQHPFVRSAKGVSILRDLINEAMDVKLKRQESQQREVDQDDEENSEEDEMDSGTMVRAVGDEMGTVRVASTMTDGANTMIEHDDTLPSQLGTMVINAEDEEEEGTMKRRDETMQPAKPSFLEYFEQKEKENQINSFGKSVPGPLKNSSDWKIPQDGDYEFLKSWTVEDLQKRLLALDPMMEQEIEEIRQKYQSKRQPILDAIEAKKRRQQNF
Outline: as §1

TYRO3 = target: T6, TYRO3 (Homo sapiens, UniProt Q06418)
T6 construct: AssayQuant Technologies, Inc. (contract laboratory that ran the panel)
T6 sequence (Q06418 41-890): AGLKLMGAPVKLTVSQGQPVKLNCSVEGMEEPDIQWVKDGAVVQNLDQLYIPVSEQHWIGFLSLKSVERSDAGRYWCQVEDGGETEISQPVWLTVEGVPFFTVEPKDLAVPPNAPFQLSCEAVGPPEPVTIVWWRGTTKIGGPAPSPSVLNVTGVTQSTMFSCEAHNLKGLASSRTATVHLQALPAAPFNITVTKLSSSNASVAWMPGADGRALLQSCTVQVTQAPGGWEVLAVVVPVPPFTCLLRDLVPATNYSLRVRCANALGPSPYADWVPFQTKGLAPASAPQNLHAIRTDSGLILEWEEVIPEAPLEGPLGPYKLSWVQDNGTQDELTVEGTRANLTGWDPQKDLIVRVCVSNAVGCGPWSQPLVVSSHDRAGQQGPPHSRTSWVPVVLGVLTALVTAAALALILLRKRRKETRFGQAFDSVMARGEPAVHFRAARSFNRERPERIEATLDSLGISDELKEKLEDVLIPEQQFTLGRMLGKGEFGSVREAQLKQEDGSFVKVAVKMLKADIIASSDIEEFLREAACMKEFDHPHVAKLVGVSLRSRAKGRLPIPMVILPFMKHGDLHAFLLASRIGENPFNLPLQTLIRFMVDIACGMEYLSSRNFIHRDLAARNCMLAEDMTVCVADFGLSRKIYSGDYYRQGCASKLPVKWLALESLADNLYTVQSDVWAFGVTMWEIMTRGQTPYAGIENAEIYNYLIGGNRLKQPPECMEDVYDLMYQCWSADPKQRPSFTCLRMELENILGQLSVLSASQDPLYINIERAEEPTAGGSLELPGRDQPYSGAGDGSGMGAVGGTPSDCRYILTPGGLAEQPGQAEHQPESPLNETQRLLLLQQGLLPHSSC
Outline: as §1

Sequence of ABL1 (P00519 whole entry): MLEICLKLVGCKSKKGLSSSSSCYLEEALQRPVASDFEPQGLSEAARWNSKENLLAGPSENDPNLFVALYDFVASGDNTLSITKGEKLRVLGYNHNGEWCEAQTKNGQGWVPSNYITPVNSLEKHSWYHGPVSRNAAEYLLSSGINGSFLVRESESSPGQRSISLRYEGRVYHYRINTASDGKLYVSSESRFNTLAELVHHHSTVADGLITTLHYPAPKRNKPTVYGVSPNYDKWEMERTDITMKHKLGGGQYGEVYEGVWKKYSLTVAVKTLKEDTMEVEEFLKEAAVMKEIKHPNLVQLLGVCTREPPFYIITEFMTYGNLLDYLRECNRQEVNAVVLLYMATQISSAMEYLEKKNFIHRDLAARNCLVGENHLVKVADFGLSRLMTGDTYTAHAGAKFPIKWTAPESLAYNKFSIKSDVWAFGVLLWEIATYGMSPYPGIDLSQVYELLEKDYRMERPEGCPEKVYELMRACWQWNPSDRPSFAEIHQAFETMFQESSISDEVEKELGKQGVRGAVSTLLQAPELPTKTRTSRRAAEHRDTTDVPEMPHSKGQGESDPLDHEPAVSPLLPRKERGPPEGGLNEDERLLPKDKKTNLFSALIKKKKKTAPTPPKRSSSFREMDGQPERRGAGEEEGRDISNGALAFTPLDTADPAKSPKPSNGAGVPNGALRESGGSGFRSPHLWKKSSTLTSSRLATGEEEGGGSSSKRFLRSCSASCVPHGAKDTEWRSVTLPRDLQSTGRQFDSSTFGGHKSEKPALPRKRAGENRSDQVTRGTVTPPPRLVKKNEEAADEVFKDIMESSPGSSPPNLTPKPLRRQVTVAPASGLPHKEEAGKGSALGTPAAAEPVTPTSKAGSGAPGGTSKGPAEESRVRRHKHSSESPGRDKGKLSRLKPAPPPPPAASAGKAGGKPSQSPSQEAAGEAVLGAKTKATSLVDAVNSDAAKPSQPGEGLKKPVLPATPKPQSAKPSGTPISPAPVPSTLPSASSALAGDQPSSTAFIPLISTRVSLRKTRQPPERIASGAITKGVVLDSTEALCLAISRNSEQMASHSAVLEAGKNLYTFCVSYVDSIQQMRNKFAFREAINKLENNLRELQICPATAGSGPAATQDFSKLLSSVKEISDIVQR

`C=CC(=O)N1CCCC(c2c(F)cc(C(N)=O)c3[nH]c4c(c23)CCCCC4)C1` (single isomer, unassigned) [Compound 5-6] was tested. Which inhibition at 1 µM (ABL1) did it give?
Its inhibition at 1 µM is -14.6%.

And the inhibition at 1 µM (CLK2)?
Its inhibition at 1 µM is 0.7%.

What about the inhibition at 1 µM (MAP3K7) of the same compound?
Its inhibition at 1 µM is -19.6%.

And the inhibition at 1 µM (MET)?
The inhibition at 1 µM was 12%.

What about the inhibition at 1 µM (PHKG2) of the same compound?
The inhibition at 1 µM was 10.1%.

What about the inhibition at 1 µM (STK4/MST1) of the same compound?
Its inhibition at 1 µM is 0.9%.

What about the inhibition at 1 µM (TYRO3) of the same compound?
Its inhibition at 1 µM is 2.4%.

For `C=CC(=O)N1CCC[C@@H](c2c(F)cc(C(N)=O)c3[nH]c4c(c23)CC2(CC4)CC2)C1` [Compound 6-2, (S)-5-(1-acryloylpiperidin-3-yl)-6-fluoro-1,2,4,9-tetrahydrospiro[carbazole-3,1′-cyclopropane]-8-carboxamide], which inhibition at 1 µM (ABL1) is on record?
Its inhibition at 1 µM is 2.5%.

And the inhibition at 1 µM (CLK2)?
The inhibition at 1 µM was -4.6%.

What about the inhibition at 1 µM (MAP3K7) of the same compound?
The inhibition at 1 µM was 10%.

And the inhibition at 1 µM (MET)?
The inhibition at 1 µM was 18.9%.

And the inhibition at 1 µM (PHKG2)?
The inhibition at 1 µM was 64.5%.

What about the inhibition at 1 µM (STK4/MST1) of the same compound?
Its inhibition at 1 µM is -9.5%.

And the inhibition at 1 µM (TYRO3)?
The inhibition at 1 µM was 14.7%.

What does the source list for `C=CC(=O)N1CCC[C@@H](c2c(F)cc(C(N)=O)c3[nH]c4c(c23)CCC4)C1` [Compound 10-2, (S)-8-(1-acryloylpiperidin-3-yl)-7-fluoro-1,2,3,4-tetrahydrocyclo-penta[b]indole-5-carboxamide]?
inhibition at 1 µM (ABL1): 3.1%; inhibition at 1 µM (CLK2): -3.2%; inhibition at 1 µM (MAP3K7): 13.2%; inhibition at 1 µM (MET): 28.1%; inhibition at 1 µM (PHKG2): 75%; inhibition at 1 µM (STK4/MST1): 0.4%; inhibition at 1 µM (TYRO3): 10.1%
